The target in the assay is T1, human Nav1.7 channels (Homo sapiens, UniProt Q15858).
T1 construct: expressed in transfected cells; host or cells: CHO
The assay is described as follows: FRET assay, human Nav1.7 (EFS on FDSS). Format: cell-based. Conditions: CHO cells expressing human Nav1.7, read-out: IC50 against Nav1.7. A digest of the protocol:
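IC50 was derived from normalized 440 nm fluorescence ratios of the EFS-evoked membrane-potential response read on FDSS. Recombinant CHO cells were sequentially dye-loaded with coumarin/oxonol FRET pair at room temperature in pH 7.4 buffer before compound addition.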

T1 sequence (Q15858 whole entry): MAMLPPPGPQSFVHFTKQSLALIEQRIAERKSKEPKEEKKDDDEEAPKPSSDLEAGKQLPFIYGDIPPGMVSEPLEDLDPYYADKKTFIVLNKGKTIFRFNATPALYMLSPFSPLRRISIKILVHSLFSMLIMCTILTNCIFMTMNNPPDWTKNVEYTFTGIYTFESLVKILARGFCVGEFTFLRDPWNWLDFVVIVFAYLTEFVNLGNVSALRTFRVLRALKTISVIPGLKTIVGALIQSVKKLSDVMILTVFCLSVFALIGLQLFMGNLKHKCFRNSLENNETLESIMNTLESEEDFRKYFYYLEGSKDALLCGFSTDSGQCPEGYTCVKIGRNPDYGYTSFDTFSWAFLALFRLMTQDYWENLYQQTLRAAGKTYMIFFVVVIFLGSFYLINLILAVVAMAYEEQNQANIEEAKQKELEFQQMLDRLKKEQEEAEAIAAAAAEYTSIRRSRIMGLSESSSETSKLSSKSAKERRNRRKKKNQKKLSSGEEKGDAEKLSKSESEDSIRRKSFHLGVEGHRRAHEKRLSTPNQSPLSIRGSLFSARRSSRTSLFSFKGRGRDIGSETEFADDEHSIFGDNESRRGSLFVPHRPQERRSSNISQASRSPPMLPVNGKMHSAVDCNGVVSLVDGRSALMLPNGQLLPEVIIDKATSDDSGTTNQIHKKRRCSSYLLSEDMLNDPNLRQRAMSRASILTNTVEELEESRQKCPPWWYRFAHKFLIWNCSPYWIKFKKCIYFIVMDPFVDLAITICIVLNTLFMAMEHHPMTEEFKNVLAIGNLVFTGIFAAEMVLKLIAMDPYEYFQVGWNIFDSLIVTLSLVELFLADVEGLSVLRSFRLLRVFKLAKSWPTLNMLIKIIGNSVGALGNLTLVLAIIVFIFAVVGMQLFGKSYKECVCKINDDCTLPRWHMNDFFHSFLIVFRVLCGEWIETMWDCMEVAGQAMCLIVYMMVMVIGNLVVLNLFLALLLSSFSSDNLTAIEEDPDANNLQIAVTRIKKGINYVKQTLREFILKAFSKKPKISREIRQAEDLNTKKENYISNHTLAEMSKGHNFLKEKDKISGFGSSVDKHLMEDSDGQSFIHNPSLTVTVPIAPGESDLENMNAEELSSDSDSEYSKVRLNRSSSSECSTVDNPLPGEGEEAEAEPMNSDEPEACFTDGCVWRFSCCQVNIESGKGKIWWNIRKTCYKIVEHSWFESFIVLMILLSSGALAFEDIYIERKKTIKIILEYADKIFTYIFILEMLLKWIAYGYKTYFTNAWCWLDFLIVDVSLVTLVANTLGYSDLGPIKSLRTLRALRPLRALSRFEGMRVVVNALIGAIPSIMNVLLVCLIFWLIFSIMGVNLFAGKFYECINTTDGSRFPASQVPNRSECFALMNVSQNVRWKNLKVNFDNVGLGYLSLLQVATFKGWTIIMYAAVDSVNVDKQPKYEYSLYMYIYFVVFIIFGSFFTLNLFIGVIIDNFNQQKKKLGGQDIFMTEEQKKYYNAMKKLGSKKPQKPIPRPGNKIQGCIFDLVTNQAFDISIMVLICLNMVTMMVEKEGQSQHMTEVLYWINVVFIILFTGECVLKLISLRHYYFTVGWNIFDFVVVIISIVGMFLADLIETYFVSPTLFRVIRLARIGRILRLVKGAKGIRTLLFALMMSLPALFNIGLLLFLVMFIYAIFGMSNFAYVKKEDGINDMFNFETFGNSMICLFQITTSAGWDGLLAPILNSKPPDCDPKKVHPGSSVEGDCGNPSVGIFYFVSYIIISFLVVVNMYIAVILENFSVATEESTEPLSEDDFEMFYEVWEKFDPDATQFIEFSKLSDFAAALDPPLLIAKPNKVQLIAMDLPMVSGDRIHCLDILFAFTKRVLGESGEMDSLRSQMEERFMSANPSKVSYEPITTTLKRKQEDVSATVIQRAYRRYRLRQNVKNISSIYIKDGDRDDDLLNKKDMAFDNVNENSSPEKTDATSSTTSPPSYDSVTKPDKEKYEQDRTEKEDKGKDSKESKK

What is called IC50 is the point on the concentration scale where inhibition reaches its midpoint. Regarding `Cc1cc(C(=O)NCc2cnc(OCC(F)(F)F)c(Br)c2)cc(NC(=O)C2CC2)n1` [Example 900, N-((5-bromo-6-(2,2,2-trifluoroethoxy)pyridin-3-yl)methyl)-2-(cyclopropanecarboxamido)-6-methylisonicotinamide], the IC50 is less than 1 µM.
`Cc1cc(C(=O)NCc2cnc(OCC(F)(F)F)c(Br)c2)cc(NC(=O)C(C)C)n1` [Example 901, N-((5-bromo-6-(2,2,2-trifluoroethoxy)pyridin-3-yl)methyl)-2-isobutyramido-6-methylisonicotinamide]: the IC50 was less than 1 µM.
The figure for `CCc1cc(CNC(=O)c2ccnc(NC(=O)C(C)C)c2)cnc1OCC(F)F` [Example 910, N-((6-(2,2-difluoroethoxy)-5-ethylpyridin-3-yl)methyl)-2-isobutyramidoisonicotinamide] is less than 1 µM; for `CCc1cc(CNC(=O)c2ccnc(NC(=O)C3CC3)n2)cnc1OCC(F)F` [Example 912, 2-(cyclopropanecarboxamido)-N-((6-(2,2-difluoroethoxy)-5-ethylpyridin-3-yl)methyl)pyrimidine-4-carboxamide] it is less than 1 µM.
With `CCc1cc(CNC(=O)c2ccnc(NC(=O)C3CC3)c2)cnc1OCC(F)F` [Example 931, 2-(cyclopropanecarboxamido)-N-((6-(2,2-difluoroethoxy)-5-ethylpyridin-3-yl)methyl)isonicotinamide] the figure was less than 1 µM; with `CCc1cc(CNC(=O)c2cc(C)nc(NC(C)=O)c2)cnc1OCC(F)F` [Example 932, 2-acetamido-N-((6-(2,2-difluoroethoxy)-5-ethylpyridin-3-yl)methyl)-6-methylisonicotinamide], less than 1 µM.
With `CCCC(=O)Nc1cc(C(=O)NCc2cnc(OCC(F)F)c(CC)c2)ccn1` [Example 933, 2-butyramido-N-((6-(2,2-difluoroethoxy)-5-ethylpyridin-3-yl)methyl)isonicotinamide] the figure was less than 1 µM; with `CC(=O)Nc1cc(C(=O)NCc2ccc(OCC(F)F)c(C)c2)ccn1` [Example 988, 2-acetamido-N-(4-(2,2-difluoroethoxy)-3-methylbenzyl)isonicotinamide], less than 1 µM.
`CCC(=O)Nc1cc(C(=O)NCc2ccc(OCC(F)F)c(C)c2)ccn1` [Example 989, N-(4-(2,2-difluoroethoxy)-3-methylbenzyl)-2-propionamidoisonicotinamide]: the IC50 is less than 1 µM.
Turning to `Cc1cc(CNC(=O)c2ccnc(NC(=O)C3CC3)c2)ccc1OCC(F)F` [Example 990, 2-(cyclopropanecarboxamido)-N-(4-(2,2-difluoroethoxy)-3-methylbenzyl)isonicotinamide], the 50% inhibitory concentration (IC50) was less than 1 µM.
Take `Cc1cc(CNC(=O)c2ccnc(NC(=O)C(C)C)c2)ccc1OCC(F)F` [Example 991, N-(4-(2,2-difluoroethoxy)-3-methylbenzyl)-2-isobutyramidoisonicotinamide]: the IC50 was less than 1 µM.
With `Cc1cc(CNC(=O)c2ccnc(NC(=O)C3CC3)n2)ccc1OCC(F)F` [Example 992, 2-(cyclopropanecarboxamido)-N-(4-(2,2-difluoroethoxy)-3-methylbenzyl)pyrimidine-4-carboxamide] the figure was less than 1 µM; with `CC(=O)Nc1cc(C(=O)NCc2ccc(OCC(F)F)c(C)c2)cc(C)n1` [Example 993, 2-acetamido-N-(4-(2,2-difluoroethoxy)-3-methylbenzyl)-6-methylisonicotinamide], less than 1 µM.
`Cc1cc(C(=O)NCc2ccc(OCC(F)F)c(C)c2)cc(NC(=O)C(C)C)n1` [Example 994, N-(4-(2,2-difluoroethoxy)-3-methylbenzyl)-2-isobutyramido-6-methylisonicotinamide]: the half-inhibitory concentration (IC50) was less than 1 µM.
The figure for `Cc1cc(C(=O)NCc2ccc(OCC(F)F)c(C)c2)nc(NC(=O)C2CC2)n1` [Example 996, 2-(cyclopropanecarboxamido)-N-(4-(2,2-difluoroethoxy)-3-methylbenzyl)-6-methylpyrimidine-4-carboxamide] is less than 1 µM; for `CCC(=O)Nc1cc(C(=O)NCc2ccc(OCC(F)F)c(Cl)c2)ccn1` [Example 998, N-(3-chloro-4-(2,2-difluoroethoxy)benzyl)-2-propionamidoisonicotinamide] it is less than 1 µM.
The figure for `Cc1cc(C(=O)NCc2ccc(OCC(F)F)c(Cl)c2)cc(NC(=O)C(C)C)n1` [Example 1003, N-(3-chloro-4-(2,2-difluoroethoxy)benzyl)-2-isobutyramido-6-methylisonicotinamide] is less than 1 µM; for `CC(=O)Nc1cc(C(=O)NCc2ccc(OCC(F)F)cc2C)cc(C)n1` [Example 1007, 2-acetamido-N-(4-(2,2-difluoroethoxy)-2-methylbenzyl)-6-methylisonicotinamide] it is less than 1 µM.
As for `Cc1cc(C(=O)NCc2ccc(OCC(F)F)cc2C)cc(NC(=O)C(C)C)n1` [Example 1008, N-(4-(2,2-difluoroethoxy)-2-methylbenzyl)-2-isobutyramido-6-methylisonicotinamide], the IC50 was less than 1 µM.
For `CCC(=O)Nc1cc(C(=O)NCc2cccc(C(F)(F)F)c2F)ccn1` [Example 1012, N-(2-fluoro-3-(trifluoromethyl)benzyl)-2-propionamidoisonicotinamide], the IC50 was less than 1 µM.
In the case of `CCC(=O)Nc1cc(C(=O)NCc2cccc(C(F)(F)F)c2OC)ccn1` [Example 1017, N-(2-methoxy-3-(trifluoromethyl)benzyl)-2-propionamidoisonicotinamide], the half-inhibitory concentration (IC50) was less than 1 µM.
The figure for `Cc1cc(C(=O)NCc2ccc(OCC(F)F)cc2Cl)cc(NC(=O)C(C)C)n1` [Example 1049, N-(2-chloro-4-(2,2-difluoroethoxy)benzyl)-2-isobutyramido-6-methylisonicotinamide] is less than 1 µM; for `COc1cc(CNC(=O)c2ccnc(NC(C)=O)c2)ccc1OCC(F)(F)F` [Example 1078, 2-acetamido-N-(3-methoxy-4-(2,2,2-trifluoroethoxy)benzyl)isonicotinamide] it is less than 1 µM.
With `CC(=O)Nc1cc(C(=O)NCc2cnc(OCC(F)F)c(C3CC3)c2)cc(C)n1` [Example 1082, 2-acetamido-N-((5-cyclopropyl-6-(2,2-difluoroethoxy)pyridin-3-yl)methyl)-6-methylisonicotinamide] the figure was less than 1 µM; with `COc1cc(CNC(=O)c2ccnc(NC(=O)C3CC3)c2)ccc1OCC(F)(F)F` [Example 1102, 2-(cyclopropanecarboxamido)-N-(3-methoxy-4-(2,2,2-trifluoroethoxy)benzyl)isonicotinamide], less than 1 µM.
`Cc1cc(C(=O)NCc2cccc(OCC(F)F)c2C)cc(NC(=O)C(C)C)n1` [Example 1131, N-(3-(2,2-difluoroethoxy)-2-methylbenzyl)-2-isobutyramido-6-methylisonicotinamide]: the half-maximal inhibitory concentration (IC50) is less than 1 µM.
With `Cc1cc(C(=O)NCc2cnc(OCC(F)(F)F)c(Cl)c2)nc(NC(=O)C2CC2)n1` [Example 1147, N-((5-chloro-6(2,2,2-trifluoroethoxy)pyridin-3-yl)methyl)-2-(cyclopropanecarboxamido)-6-methylpyrimidine-4-carboxamide] the figure was less than 1 µM; with `CCC(=O)Nc1cc(C(=O)NCc2ccc(OCC(F)F)nc2OC)ccn1` [Example 1152, N-((6-(2,2-difluoroethoxy)-2-methoxypyridin-3-yl)methyl)-2-propionamidoisonicotinamide], less than 1 µM.

(Values after patent publication US9302991B2, “Arylamide derivatives as TTX-S blockers” (RaQualia Pharma Inc., priority 2010, dated 2016).)
